Test results reported in ChEMBL document CHEMBL1153646, “Peptidomimetic inhibitors of p21ras farnesyltransferase: Hydrophobic functionalization leads to disruption of p21ras membrane association in whole cells” (Bioorg Med Chem Lett, 1994).
Calls of active or inactive are those of the source. No cut-off for these calls is given here.

Experiments:
[1] = target: Protein farnesyltransferase (Mus musculus) (UniProt Q61239+Q8K2I1); assay: In vivo inhibition of p21ras-farnesyl transferase in NIH3T3 cells (No inhibition); format: functional
[2] = target: Protein farnesyltransferase (Homo sapiens, UniProt P49354+P49356); assay: In vitro inhibition of [3H]FPP incorporation into recombinant P21ras of NIH3T3 cells by farnesyl transferase; format: cell-based

| SMILES | inhibition [1] | IC50 [2] [µM] |
| --- | --- | --- |
| COC(=O)[C@H](CCSC)NC(=O)c1cccc(CNC(=O)[C@H](CS)NC(C)=O)c1 | inactive | 100 |
| CC[C@@H](C)[C@H](NC(=O)[C@@H](NC(=O)[C@H](CSC(=O)OCc1ccccc1)NC(=O)OCc1ccccc1)C(C)C)C(=O)N[C@@H](CCSC)C(=O)OC | inactive | 90 |
| COC(=O)[C@H](CCSC)NC(=O)c1cccc(CNC(=O)[C@H](CSC(=O)OCc2ccccc2)NC(=O)OCc2ccccc2)c1 | – | 100 |
| COC(=O)[C@H](CCSC)NC(=O)c1cccc(CNC(=O)[C@@H](N)CS)c1 | – | 18 |
| CSCC[C@H](NC(=O)c1cccc(CNC(=O)[C@H](CS)NC(=O)OCc2ccccc2)c1)C(=O)O | inactive | 14 |

These reach a lower IC50 [2]. Values come first.

| inhibition [1] | IC50 [2] [µM] | SMILES |
| --- | --- | --- |
| inactive | 0.38 | CSCC[C@H](NC(=O)c1cccc(CNC(=O)[C@@H](N)CS)c1)C(=O)O |
| – | 0.34 | CC[C@H](C)[C@H](NC(=O)[C@@H](NC(=O)[C@@H](N)CS)C(C)C)C(=O)N[C@@H](CCSC)C(=O)O |
